We go through six compounds from ChEMBL document CHEMBL3044816, “Mode of Action of Herbicidal N-Benzyl-4-chloro-N-isobutyl-2-pentenamides” (J Pestic Sci, 2002).

Activity calls are given as the source filed them. The rule behind the calls is not given here. Some results are limits rather than exact numbers.

One assay concerns Echinochloa crus-galli. As to the kind of experiment: Herbicidal activity against Echinochloa crus-galli (barnyard grass) assessed as damage of seedlings. The class given is functional.
In assay [1] the test system is Scenedesmus acutus. The experiment in a line: Phytotoxic activity against Scenedesmus acutus assessed as zeta-carotene accumulation. The class given is functional, organism-based.
Assay [2] deals with Scenedesmus acutus. As to the kind of experiment: Phytotoxic activity against Scenedesmus acutus assessed as phytoene accumulation. The format is functional, organism-based.

In the case of `CC(Cl)/C=C/C(=O)N(Cc1ccc(Cl)cc1)CC(C)C` (stereo unspecified), the ED90 in the assay with Echinochloa crus-galli came out at 16 gAi/ha.
Take `COc1ccc(C(=O)c2cccc(C)c2)cc1C`: the result in the assay on Scenedesmus acutus [1] was Active.
For `CC(Cl)/C=C/C(=O)N(Cc1ccc(C#N)cc1)CC(C)C` (stereo unspecified), in the assay on Echinochloa crus-galli, the ED90 is 16 gAi/ha.
Take `CC(Cl)/C=C/C(=O)N(Cc1ccc(S(C)(=O)=O)cc1)CC(C)C` (stereo unspecified): in the assay with Echinochloa crus-galli, the ED90 is listed as greater than 1000 gAi/ha.
Consider `CC(Cl)/C=C/C(=O)N(Cc1ccc(C(F)(F)F)cc1)CC(C)C` (stereo unspecified), for which the ED90 in the assay on Echinochloa crus-galli amounted to 31 gAi/ha.
Consider `CNc1cnn(-c2cccc(C(F)(F)F)c2)c(=O)c1Cl`, for which the outcome with Scenedesmus acutus [2] was Active.
